Experimental data taken from US20110039762A1, “TARGETED ANTIMICROBIAL MOIETIES” (C3 JIAN, INC., priority 2009, published 2011).
“Also recorded” adds a separate entry of the source.

What was measured:
microorganisms = assay: Peptides having multiple activities (targeting/binding, antimicrobial, growth or phenotype altering)
Source text: In certain embodiments, peptides described herein can have multiple activities. Thus for example, a peptide can have both binding/targeting activity and antimicrobial activity. Such peptides can be used, e.g., in a chimeric construct, for any or all of these properties. Thus, for example, a peptide designated “B” in Table 8 can be used as a targeting peptide. If it is also designated G or M it can also be used for antimicrobial activity.

[1] = system: microorganisms (e.g., bacteria, yeasts, fungi); assay: Targeting peptide binding to target microorganisms (Table 3); settings: preferably 1x PBS
C. jeikeium = assay: Kill or inhibit growth/proliferation; morphology, biofilm and growth disruption (Tables 5, 6); assay type: cell-based, Corynebacterium jeikeium; parameters: key: A: Peptide aggregates; B: Less hyphal formation; Clumps; Diffuse clumps and small polyps; F: Diffuse growth; H: Thin; I: Growth inhibition; Microcolony formation; Rippled; Small polyps; Thick; W: Halo formation on top, microlonies on bottom; also: test concentration or dose not given here
MRSA = assay: as above; assay type: cell-based, Methicillin-resistant Staphylococcus aureus; parameters: key: A: Peptide aggregates; B: Less hyphal formation; Clumps; Diffuse clumps and small polyps; F: Diffuse growth; H: Thin; I: Growth inhibition; Microcolony formation; Rippled; Small polyps; Thick; W: Halo formation on top, microlonies on bottom; also: test concentration or dose not given here
S. epidermidis = assay: as above; assay type: cell-based, Staphylococcus epidermidis; parameters: key: A: Peptide aggregates; B: Less hyphal formation; Clumps; Diffuse clumps and small polyps; F: Diffuse growth; H: Thin; I: Growth inhibition; Microcolony formation; Rippled; Small polyps; Thick; W: Halo formation on top, microlonies on bottom
E. coli = assay: as above; assay type: cell-based, Escherichia coli; parameters: key: A: Peptide aggregates; B: Less hyphal formation; Clumps; Diffuse clumps and small polyps; F: Diffuse growth; H: Thin; I: Growth inhibition; Microcolony formation; Rippled; Small polyps; Thick; W: Halo formation on top, microlonies on bottom; also: test concentration or dose not given here
E. faecalis = assay: as above; assay type: cell-based, Enterococcus faecalis; parameters: key: A: Peptide aggregates; B: Less hyphal formation; Clumps; Diffuse clumps and small polyps; F: Diffuse growth; H: Thin; I: Growth inhibition; Microcolony formation; Rippled; Small polyps; Thick; W: Halo formation on top, microlonies on bottom; also: test concentration or dose not given here
S. pneumoniae = assay: as above; assay type: cell-based, Streptococcus pneumoniae; parameters: key: A: Peptide aggregates; B: Less hyphal formation; Clumps; Diffuse clumps and small polyps; F: Diffuse growth; H: Thin; I: Growth inhibition; Microcolony formation; Rippled; Small polyps; Thick; W: Halo formation on top, microlonies on bottom; also: test concentration or dose not given here
C. jejuni = assay: as above; assay type: cell-based, Campylobacter jejuni; parameters: key: A: Peptide aggregates; B: Less hyphal formation; Clumps; Diffuse clumps and small polyps; F: Diffuse growth; H: Thin; I: Growth inhibition; Microcolony formation; Rippled; Small polyps; Thick; W: Halo formation on top, microlonies on bottom; also: test concentration or dose not given here
M. luteus = assay: as above; assay type: cell-based, Micrococcus luteus; parameters: key: A: Peptide aggregates; B: Less hyphal formation; Clumps; Diffuse clumps and small polyps; F: Diffuse growth; H: Thin; I: Growth inhibition; Microcolony formation; Rippled; Small polyps; Thick; W: Halo formation on top, microlonies on bottom
[2] = microorganism(s) the targeting peptide binds, binding in aqueous buffers depending on peptide solubility
[3] = microorganism(s) the targeting peptide binds, peptide binding conducted in aqueous buffers varied by peptide solubility
For Organism, effect in this document: test concentration or dose not given here.

| Substance | Activities (microorganisms) | Organism, effect (C. jeikeium) | Organism, effect (S. epidermidis) | Target(s) [1, 2] | also measured |
| --- | --- | --- | --- | --- | --- |
| PF-011: peptide having multiple activities (chain 1 MFCYYKQHKGDNFSIEEVKNIIADNEMKVN; chain 2 MFCYYKQHKGDNFSIEEVKNIIADNEMKVN; Peptide with targeting and/or antimicrobial activity) | G B | C. jeikeium (C) |  |  | Target(s) ([1]; microorganism the targeting peptide binds, binding in aqueous buffers varied by peptide solubility): M. luteus; also recorded: E. coli; also recorded: P. aeruginosa; also recorded: S. pneumoniae; also recorded: C. jeikeium; Organism, effect (MRSA): MRSA (R) |
| PF-032 (RIVVPAHQSNMASTPNLSITP; Peptide with targeting and/or antimicrobial activity) |  | C. jeikeium (C) | S. epidermidis (S) |  |  |
| PF-099: peptide having multiple activities (EIIAYLEGRFANA; Peptide with targeting and/or antimicrobial activity) | G B | C. jeikeium (C) | S. epidermidis (D) | S. epidermidis; also recorded: M. luteus; also recorded: E. coli; also recorded: C. jeikeium |  |
| PF-129: peptide having multiple activities (MKLLARDPWVCAWNDIW; Peptide with targeting and/or antimicrobial activity) | G B | C. jeikeium (R) | S. epidermidis (M) | S. epidermidis and MRSA and E. faecalis and C. jeikeium and C. jejuni |  |
| PF-133: peptide having multiple activities (GDPTAGQKPVECP; Peptide with targeting and/or antimicrobial activity) | G B | C. jeikeium (R) |  | S. epidermidis; also recorded: C. jeikeium; also recorded: C. jejuni; also recorded: M. smegmatis |  |
| PF-135: peptide having multiple activities (PPARPARIPQTPTLHGASLFRQRS; Peptide with targeting and/or antimicrobial activity) | G B | C. jeikeium (R) |  | S. epidermidis and M. luteus and E. coli and P. aeruginosa and MRSA and C. jeikeium and M. smegmatis |  |
| PF-153: peptide having multiple activities (GILARADCSQIA; Peptide with targeting and/or antimicrobial activity) | G B | C. jeikeium (C) | S. epidermidis (M) | M. luteus and P. mirabilis and E. coli and MRSA |  |
| PF-164: peptide having multiple activities (EEVSRALAGIGLGLGCRIG; Peptide with targeting and/or antimicrobial activity) | G B | C. jeikeium (R) |  | S. epidermidis; also recorded: M. luteus; also recorded: E. coli; also recorded: C. jeikeium |  |
| PF-173: peptide having multiple activities (AGRTAIVQGGG; Peptide with targeting and/or antimicrobial activity) | G B | C. jeikeium (D) | S. epidermidis (A) | S. epidermidis; also recorded: M. luteus; also recorded: P. mirabilis; also recorded: E. coli; also recorded: P. aeruginosa; also recorded: C. albicans; also recorded: C. jeikeium; also recorded: C. jejuni |  |
| PF-188: peptide having multiple activities (ARTFAGRLGTRYFGGLMRSTKA; Peptide with targeting and/or antimicrobial activity) | G B | C. jeikeium (H) |  | S. epidermidis and M. luteus and E. coli and C. albicans and MRSA and E. faecalis |  |
| PF-190: peptide having multiple activities (HFILRKPLLFMIHSLKTGPLDRF; Peptide with targeting and/or antimicrobial activity) | G B | C. jeikeium (R) | S. epidermidis (C) |  |  |
| PF-196: peptide having multiple activities (TTARYIRRQCHTSITPLSQG; Peptide with targeting and/or antimicrobial activity) | G B | C. jeikeium (R) | S. epidermidis (C) |  |  |
| PF-203: peptide having multiple activities (SWKCHHLAI; Peptide with targeting and/or antimicrobial activity) | G B | C. jeikeium (R) | S. epidermidis (A) |  |  |
| PF-390: peptide having multiple activities (chain 1 VVAYVITQVGAIRF; chain 2 VVAYVITQVGAIRF; Peptide with targeting and/or antimicrobial activity) | G B |  | S. epidermidis (D) |  | Organism, effect (E. coli): E. coli (C); Organism, effect (E. faecalis): E. faecalis (D); Target(s) [1, 3]: S. epidermidis and P. aeruginosa and C. albicans and MRSA; Organism, effect (S. pneumoniae): S. pneumoniae (D); Organism, effect (MRSA): MRSA (D); Organism, effect (C. jejuni): C. jejuni (D) |
| PF-562: peptide having multiple activities (chain 1 TPEQWLERSTVVVTGLLNRK; chain 2 TPEQWLERSTVVVTGLLNRK; Peptide with targeting and/or antimicrobial activity) | G B |  | S. epidermidis (A) |  | Organism, effect (M. luteus): M. luteus (R); Organism, effect (S. pneumoniae): S. pneumoniae (D); Organism, effect (MRSA): MRSA (M); Organism, effect (C. jejuni): C. jejuni (R) |
| PF-584: peptide having multiple activities (SYIKNLSNQKFLIAF; Peptide with targeting and/or antimicrobial activity) | G B |  | S. epidermidis (C) |  | Organism, effect (E. coli): E. coli (C); Organism, effect (E. faecalis): E. faecalis (D); Target(s) [1, 3]: S. epidermidis and M. luteus and P. mirabilis and C. albicans and MRSA and S. pneumoniae and E. faecalis and C. jeikeium; Organism, effect (S. pneumoniae): S. pneumoniae (D); Organism, effect (MRSA): MRSA (D); Organism, effect (C. jejuni): C. jejuni (D) |
| PF-598: peptide having multiple activities (MKFMLEVRNKAISAYKEITRTQI; Peptide with targeting and/or antimicrobial activity) | G B |  | S. epidermidis (R) |  | Organism, effect (E. coli): E. coli (C); Organism, effect (E. faecalis): E. faecalis (R); Target(s) (microorganisms bound by the targeting peptide) ([1]; peptide binding in aqueous buffers varied by peptide solubility): S. epidermidis and M. luteus and P. mirabilis and P. aeruginosa and C. albicans and MRSA and S. pneumoniae and C. jeikeium; Organism, effect (S. pneumoniae): S. pneumoniae (R); Organism, effect (MRSA): MRSA (D); Organism, effect (C. jejuni): C. jejuni (R) |
